Structures are written as SMILES.

In US20200306266A1, “SOLID DISPERSION OF DUTASTERIDE, METHOD FOR PRODUCING SAME, AND PHARMACEUTICAL COMPOSITION COMPRISING SAME” (KOREA PRIME PHARM CO., LTD., priority 2017, published 2020) one finds Judgement data, which are given here for one compound.

The series is described as follows: Storage stability, related substance test. The following applies: Raw material. Format: physicochemical. Here is the method: Evaluation of Storage Stability of the Preparations
The storage stabilities of the preparations were evaluated according to the test criteria for related substances.

`C[C@]12C=CC(=O)N[C@@H]1CC[C@@H]1[C@@H]2CC[C@]2(C)[C@@H](C(=O)Nc3cc(C(F)(F)F)ccc3C(F)(F)F)CC[C@@H]12` [Dutasteride, 17β-N-[2,5-bis(trifluoromethyl)]phenylcarbamoyl-4-aza-5α-androst-1-en-3-one]: the Judgement result is reported as “Suitable”.
